# ChEMBL document CHEMBL1201862, “PubChem BioAssay data set” (2004)
#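 Tested at 5 concentrations; 48 h exposure; 96-well plates; endpoints linearly interpolated, else capped at highest concentration. GI50 = concentration required for 50% inhibition of growth.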 Active and inactive are the calls of the source. No stated cut-off is given here; in the data, active = GI50 up to about 1.1 µM and inactive = higher.
# What was measured:
# Experiment in all cases: DTP human tumour cell line panel, 48 h
# 786-0 = system: 786-0
# A498 = system: A498
# ACHN = system: ACHN
# CAKI-1 = system: CAKI-1
# CCRF-CEM = system: CCRF-CEM
# COLO 205 = system: COLO 205
# DU-145 = system: DU-145
# EKVX = system: EKVX
# HCC 2998 = system: HCC 2998
# HCT-116 = system: HCT-116
# HCT-15 = system: HCT-15
# HL-60 = system: HL-60
# HOP-62 = system: HOP-62
# HOP-92 = system: HOP-92
# HT-29 = system: HT-29
# Hs-578T = system: Hs-578T
# IGROV-1 = system: IGROV-1
# K562 = system: K562
# KM12 = system: KM12
# LOX IMVI = system: LOX IMVI
# M14 = system: M14
# MCF7 = system: MCF7
# MDA-MB-231 = system: MDA-MB-231
# MDA-MB-435 = system: MDA-MB-435
# MOLT-4 = system: MOLT-4
# NCI-H226 = system: NCI-H226
# NCI-H23 = system: NCI-H23
# NCI-H460 = system: NCI-H460
# NCI/ADR-RES = system: NCI/ADR-RES
# OVCAR-4 = system: OVCAR-4
# OVCAR-8 = system: OVCAR-8
# PC-3 = system: PC-3
# RPMI-8226 = system: RPMI-8226
# RXF 393 = system: RXF 393
# SF-268 = system: SF-268
# SF-295 = system: SF-295
# SF-539 = system: SF-539
# SK-MEL-28 = system: SK-MEL-28
# SK-MEL-2 = system: SK-MEL-2
# SK-MEL-5 = system: SK-MEL-5
# SK-OV-3 = system: SK-OV-3
# SNB-19 = system: SNB-19
# SNB-75 = system: SNB-75
# SR = system: SR
# SW-620 = system: SW-620
# T47D = system: T47D
# TK-10 = system: TK-10
# U-251 = system: U-251
# UACC-257 = system: UACC-257
# UACC-62 = system: UACC-62
# UO-31 = system: UO-31
structure (smiles),measurement,setting,value
O=C(c1ccc2ccccc2c1O)N1CCCCC1,GI50,786-0,> 100 µM (inactive)
same,GI50,A498,> 100 µM (inactive)
same,GI50,ACHN,> 100 µM (inactive)
same,GI50,CAKI-1,> 100 µM (inactive)
same,GI50,CCRF-CEM,> 100 µM (inactive)
same,GI50,COLO 205,> 100 µM (inactive)
same,GI50,DU-145,> 100 µM (inactive)
same,GI50,EKVX,61.4 µM (inactive)
same,GI50,HCC 2998,> 100 µM (inactive)
same,GI50,HCT-116,65.8 µM (inactive)
same,GI50,HCT-15,> 100 µM
same,GI50,HL-60,68.9 µM (inactive)
same,GI50,HOP-62,> 100 µM (inactive)
same,GI50,HOP-92,78.9 µM (inactive)
same,GI50,HT-29,> 100 µM (inactive)
same,GI50,Hs-578T,> 100 µM (inactive)
same,GI50,IGROV-1,> 100 µM (inactive)
same,GI50,K562,28.4 µM (inactive)
same,GI50,KM12,> 100 µM (inactive)
same,GI50,LOX IMVI,90.4 µM (inactive)
same,GI50,M14,> 100 µM (inactive)
same,GI50,MCF7,> 100 µM (inactive)
same,GI50,MDA-MB-231,> 100 µM (inactive)
same,GI50,MDA-MB-435,> 100 µM (inactive)
same,GI50,MOLT-4,23.2 µM (inactive)
same,GI50,NCI-H226,> 100 µM (inactive)
same,GI50,NCI-H23,32.4 µM (inactive)
same,GI50,NCI-H460,80.7 µM (inactive)
same,GI50,NCI/ADR-RES,39 µM (inactive)
same,GI50,OVCAR-4,> 100 µM (inactive)
same,GI50,OVCAR-8,68.2 µM (inactive)
same,GI50,PC-3,> 100 µM (inactive)
same,GI50,RPMI-8226,27.4 µM (inactive)
same,GI50,RXF 393,> 100 µM (inactive)
same,GI50,SF-268,> 100 µM (inactive)
same,GI50,SF-295,92.9 µM (inactive)
same,GI50,SF-539,> 100 µM (inactive)
same,GI50,SK-MEL-28,> 100 µM (inactive)
same,GI50,SK-MEL-2,> 100 µM (inactive)
same,GI50,SK-MEL-5,34 µM (inactive)
same,GI50,SK-OV-3,> 100 µM (inactive)
same,GI50,SNB-19,> 100 µM (inactive)
same,GI50,SNB-75,> 100 µM (inactive)
same,GI50,SR,> 10 µM (inactive)
same,GI50,SW-620,> 100 µM (inactive)
same,GI50,T47D,71.3 µM (inactive)
same,GI50,TK-10,> 100 µM (inactive)
same,GI50,U-251,> 100 µM (inactive)
same,GI50,UACC-257,> 100 µM (inactive)
same,GI50,UACC-62,> 100 µM (inactive)
same,GI50,UO-31,> 100 µM (inactive)
